Assay results: patent publication US11040952B2, “Phthalazinone compound, method for preparation thereof, pharmaceutical composition thereof, and use thereof” (SHANGHAI INSTITUTE OF MATERIA MEDICA, CHINESE ACADEMY OF …, priority 2017, dated 2021)
Where two headings read alike, the source gives them in different places. Blank lines part the entries; values can stand above or below the molecule they belong to.

Legend:
HepG2.2.15 cells = test: MTT assay for cytotoxicity; type: cell-based, Human; details: 8 days, half (50%) lethal concentration
In short: (§1)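 HBV-transfected HepG2.2.15 cells were cultured with compound for 8 days at 37 °C in DMEM/10% FBS, with medium changed on day 4. Viability was read by MTT (4 h, then 12 h lysis, OD570) against control wells. CC50 is the concentration cutting viability by 50%.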

HBV = HBV DNA content in the supernatant of cell culture (real-time PCR); type: cell-based, hepatitis B virus (HBV); details: inhibition of HBV DNA replication, HepG2.2.15 supernatant, 8 days
In short: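 HepG2.2.15 cells stably carrying full-length HBV exposed to compounds for 8 days in DMEM with 10% FBS, medium renewed on day 4. Supernatant virion HBV DNA extracted and quantified by real-time PCR against a 1e^7-1e^4 IU/ml standard curve; IC50 calculated.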

HBV capsid = biological target: T1, HBV capsid (Hepatitis B virus genotype D subtype ayw, UniProt P03146); test: HBV capsid assembly, non-denaturing agarose gel electrophoresis; type: cell-based; details: FIG. 1; for content of HBV DNA in the capsid: Southern blot with HBV-specific probes; for generation of abnormal capsid (electrophoretic migration): non-denaturing agarose gel, anti-HBcAg Western blot
T1 construct: expressed in transfected cells
Method: 1×10^6 dispersed cells were added with […] of cell lysate (50 mM Tris-HCl pH 7.5, 1 mM EDTA, 0.5% Nonidet P-40), and lysed on ice for 15 min, with vortexing every 5 min to make sure that the cells were sufficiently lysed. The lysed cells were centrifuged at 10,000×g for 10 min at 4° C. to remove nuclei and cell debris. 20 μl of the cell lysate was added into the well of 1.2% or 1.8% agarose gel. Electrophoresis was run at 70V for 2.5 h at 4° C. […] After electrophoresis, the membrane-transferring was performed by siphon overnight. One sample was transferred to a nitrocellulose membrane (Amersham™ Hybond-ECL, GE), and the capsid was detected with anti-HBcAg antibody (Abcam) using Western blot method; another sample was in situ denatured with a denaturing solution (1.5 M NaCl, 0.5 M NaOH) for 45 min, neutralized with a neutralizing solution (1.5 M NaCl, 1 M Tris-HCl pH 7.4) for 45 min, and transferred to a nylon membrane (Amersham™ Hybond-N+, GE), and then the level of nucleic acid in the capsid was detected with HBV-specific probes by using Southern blot method.

[1] = MTT assay for cytotoxicity; type: cell-based, Human; details: human, HepG2.2.15 cells, half (50%) lethal concentration
In short: as §1

[2] = Tissue distribution in mice; type: in vivo; details: po 10 mg/kg; for concentration at 1 h / concentration at 3 h / concentration at 8 h: mouse
Method: 10 μl of a plasma and tissue sample was placed in a 1.5 ml centrifuge tube, added with 100 μl of an internal standard solution (5.00 ng/ml verapamil and 50.0 ng/ml Glibenclamide solution in acetonitrile), vortexed for 60 seconds, and then centrifuged for 3 min (at 12000 rpm); 75 μl of the supernatant was transferred to a 96-well plate loaded with an equal volume of water, and shaken for mixing well and then analyzed. The injection volume was 10 μl. Internal standard: an appropriate amount of verapamil and glibenclamide standards were dissolved and diluted in dimethyl sulfoxide (DMSO), shaken for mixing well, and prepared into a stock solution with a mass concentration of 2000 μg/ml, which was further diluted into internal standard working solutions of 5.00 ng/ml and 50.0 ng/ml. Stock solution: an appropriate amount of the compound was weighted and formulated into a 2.00 mg/ml stock solution with DMSO. Working solution: The stock solution was stepwisely diluted to obtain the solutions at each gradient concentration. 5.00 μl of reference standard working solution was added to 45.0 μl of a mice blank plasma and blank tissue. Then it was treated according to the method described in the section of “Sample pretreatment method”. Administration solution: a certain amount of a compound was precisely weighed and formulated into a 2.00 mg/ml milky white suspension in a ratio of 2.5% DMSO+97.5% (0.5% MC). Approximately 0.1 ml of orbital blood and liver was collected in EDTAK2 for anticoagulation from each animal that had been anesthetized with isoflurane. For the PO group, the blood was collected at 1 h, 3 h, and 8 h after administration of the test compound. After collection, the blood sample was analyzed by using comparative compounds I-70 and I-88.

[3] = Hepatitis B virus, HepG2.2.15, 192 h
[4] = liver, 1 h, read-out: Mean drug concentration, Liver
[5] = liver, 3 h, read-out: Mean drug concentration, Liver
[6] = liver, 8 h, read-out: Mean drug concentration, Liver
[7] = plasma, 1 h, read-out: Mean drug concentration, Plasma
[8] = plasma, 3 h, read-out: Mean drug concentration, Plasma
[9] = plasma, 8 h, read-out: Mean drug concentration, Plasma

T1 sequence (P03146 whole entry): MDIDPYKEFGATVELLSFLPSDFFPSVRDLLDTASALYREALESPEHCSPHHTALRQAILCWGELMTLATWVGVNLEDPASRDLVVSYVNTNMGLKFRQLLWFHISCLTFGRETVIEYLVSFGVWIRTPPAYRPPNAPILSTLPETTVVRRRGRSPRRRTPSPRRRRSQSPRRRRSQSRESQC

Structure (SMILES): COc1ccc(-c2nn(Cc3ccc(Cl)cc3)c(=O)c3ccccc23)c(F)n1 [Compound I-20]
CC50 (HepG2.2.15 cells): 33.3 µM
IC50 (HBV): 1300 nM

Structure (SMILES): [2H]C(c1ccc(Cl)cc1)n1nc(-c2ccc(F)nc2F)c2ccccc2c1=O (stereo not drawn) [Compound I-26]
content of HBV DNA in the capsid (HBV capsid): significantly reduced
generation of abnormal capsid (electrophoretic migration) (HBV capsid): induce the generation of an abnormal capsid with faster electrophoretic migration speed
CC50 at 8 days [1]: > 100 µM
IC50 (HBV; [3]): 900 nM

Structure (SMILES): O=c1c2ccccc2c(-c2cccnc2F)nn1Cc1ccc(Cl)cc1 [Compound I-3]
content of HBV DNA in the capsid (HBV capsid): significantly reduced
generation of abnormal capsid (electrophoretic migration) (HBV capsid): induce the generation of an abnormal capsid with faster electrophoretic migration speed
CC50 at 8 days [1]: > 100 µM
IC50 (HBV; [3]): 500 nM

Structure (SMILES): N#Cc1ccc(Cn2nc(-c3ccc(F)nc3F)c3ccccc3c2=O)cc1 [IV-5]
CC50 at 8 days [1]: > 100 µM
IC50 (HBV; [3]): 120 nM
concentration at 1 h [2, 4]: 1030 ng/g
concentration at 3 h [2, 5]: 1050 ng/g
concentration at 8 h [2, 6]: 1190 ng/g
concentration at 1 h [2, 7]: 154 ng/mL
concentration at 3 h [2, 8]: 63.2 ng/mL
concentration at 8 h [2, 9]: 80.1 ng/mL
liver targeting [2]: good liver targeting in mice

concentration at 1 h [2, 4]: 34.2 ng/g
concentration at 3 h [2, 5]: 9.64 ng/g
concentration at 1 h [2, 7]: 169 ng/mL
concentration at 3 h [2, 8]: 180 ng/mL
concentration at 8 h [2, 9]: 0.993 ng/mL
Mean drug concentration, Liver ([2]; 8 h): BLQ
Structure (SMILES): Cc1ccc(-c2cc(C)c(=O)n(Cc3ccc(Cl)cc3)n2)c(F)n1 [I-88, reference compound]

Structure (SMILES): Cc1ccc(-c2nn(Cc3ccc(Cl)cc3)c(=O)c3ccccc23)c(F)n1 [Compound I-10]
content of HBV DNA in the capsid (HBV capsid): significantly reduced
generation of abnormal capsid (electrophoretic migration) (HBV capsid): induce the generation of an abnormal capsid with faster electrophoretic migration speed
CC50 at 8 days [1]: 81.8 µM
IC50 (HBV; [3]): 100 nM
concentration at 1 h [2, 4]: 476 ng/g
concentration at 3 h [2, 5]: 318 ng/g
concentration at 8 h [2, 6]: 2.91 ng/g
concentration at 1 h [2, 7]: 61 ng/mL
concentration at 3 h [2, 8]: 12.5 ng/mL
liver targeting [2]: good liver targeting in mice
Mean drug concentration, Plasma ([2]; 8 h): BLQ

Structure (SMILES): COc1ccc(-c2nn(Cc3ccc(Cl)cc3)c(=O)c3ccccc23)c(F)n1 [Compound I-4]
CC50 (HepG2.2.15 cells): > 100 µM
IC50 (HBV): 3100 nM

concentration at 1 h [2, 7]: 161 ng/mL
concentration at 3 h [2, 8]: 71.7 ng/mL
concentration at 8 h [2, 9]: 17.3 ng/mL
Mean drug concentration, Liver ([2]; 1 h): BLQ^a
Mean drug concentration, Liver ([2]; 3 h): BLQ
Mean drug concentration, Liver ([2]; 8 h): BLQ
Structure (SMILES): Cc1cc(-c2ccc(F)nc2F)nn(Cc2ccc(Cl)cc2)c1=O [I-70, reference compound]

Structure (SMILES): [2H]C(c1ccc(Cl)cc1)n1nc(-c2ccc(C)nc2F)c2ccccc2c1=O (stereo not drawn) [Compound I-24]
content of HBV DNA in the capsid (HBV capsid): significantly reduced
generation of abnormal capsid (electrophoretic migration) (HBV capsid): induce the generation of an abnormal capsid with faster electrophoretic migration speed
CC50 at 8 days [1]: > 100 µM
IC50 (HBV; [3]): 400 nM

Structure (SMILES): Nc1ccc(-c2nn(Cc3ccc(Cl)cc3)c(=O)c3ccccc23)c(F)n1 [Compound I-11]
content of HBV DNA in the capsid (HBV capsid): significantly reduced
generation of abnormal capsid (electrophoretic migration) (HBV capsid): induce the generation of an abnormal capsid with faster electrophoretic migration speed
CC50 at 8 days [1]: 22.6 µM
IC50 (HBV; [3]): 900 nM
concentration at 1 h [2, 4]: 1220 ng/g
concentration at 3 h [2, 5]: 1410 ng/g
concentration at 8 h [2, 6]: 815 ng/g
concentration at 1 h [2, 7]: 33.3 ng/mL
concentration at 3 h [2, 8]: 32.5 ng/mL
concentration at 8 h [2, 9]: 23 ng/mL
liver targeting [2]: good liver targeting in mice

Structure (SMILES): CN(C)CCNc1ccc(-c2nn(Cc3ccc(C#N)cc3)c(=O)c3ccccc23)c(F)n1 [IV-37]
CC50 (HepG2.2.15 cells): 86.5 µM
IC50 (HBV): 2180 nM

Structure (SMILES): N#Cc1ccc(Cn2nc(-c3ccc(C(F)(F)F)nc3F)c3ccccc3c2=O)cc1 [IV-15]
CC50 at 8 days [1]: > 100 µM
IC50 (HBV; [3]): 270 nM
concentration at 1 h [2, 4]: 7270 ng/g
concentration at 3 h [2, 5]: 4460 ng/g
concentration at 8 h [2, 6]: 2800 ng/g
concentration at 1 h [2, 7]: 549 ng/mL
concentration at 3 h [2, 8]: 437 ng/mL
concentration at 8 h [2, 9]: 257 ng/mL
liver targeting [2]: good liver targeting in mice

Structure (SMILES): CNc1ccc(-c2nn(Cc3ccc(Cl)cc3)c(=O)c3ccccc23)c(F)n1 [Compound I-12]
content of HBV DNA in the capsid (HBV capsid): significantly reduced
generation of abnormal capsid (electrophoretic migration) (HBV capsid): induce the generation of an abnormal capsid with faster electrophoretic migration speed
CC50 at 8 days [1]: 15.7 µM
IC50 (HBV; [3]): 600 nM

Structure (SMILES): O=c1c2ccccc2c(-c2ccc(F)nc2F)nn1Cc1ccc(Cl)cc1 [Compound I-9]
content of HBV DNA in the capsid (HBV capsid): significantly reduced
generation of abnormal capsid (electrophoretic migration) (HBV capsid): induce the generation of an abnormal capsid with faster electrophoretic migration speed
CC50 at 8 days [1]: 40.7 µM
IC50 (HBV; [3]): 300 nM
